What is called Km is the concentration of substrate that gives half-maximal velocity.

The target of data set [1] is T1, P. aeruginosa EF-Tu (Pseudomonas aeruginosa, UniProt P09591).
T1 construct: made in house; host or cells: E. coli Rosetta 2(DE3), pET101/D-TOPO
Put plainly: Equilibrium dissociation constants of EF-Tu·GDP and EF-Tu·GTP complexes (dilution, nitrocellulose filter binding). The protocol:
Reactions were carried out to determine the equilibrium dissociation constants (K GDP and K GTP) for the interaction of P. aeruginosa EF-Tu with GDP and GTP. The reaction was carried out in buffer B containing 1.3 μM total P. aeruginosa EF-Tu and 12 μM [^3H]GDP (500 cpm/pmol) or [^3H]GTP (750 cpm/pmol). EF-Ts was added to 0.05 μM as indicated. To form EF-Tu·nucleotide complexes, the reactions were incubated for 2 h at 0°C. To determine the total amount of complex formed (defined as active amounts of EF-Tu), reactions were immediately filtered through nitrocellulose filters following incubation. Reactions to determine K GDP and K GTP were diluted by the addition of 5 mL of buffer B that had been preincubated at 37°C, 23°C, or 0°C. Incubation was continued at those temperatures after dilution for 10, 20, and 30 min, respectively. Remaining amounts of the complexes were determined by filtration through nitrocellulose filters.
The percentage of EF-Tu capable of exchanging GDP (active EF-Tu) was determined from assays described in Section 3.6 which measured the total EF-Tu·[^3H]GDP complexes formed. In these assays, saturating amounts of [^3H]GDP (12 μM) were incubated with EF-Tu on ice for 2 h, and the total labeled EF-Tu·[^3H]GDP complex was determined using nitrocellulose filter binding, which retained the complex but not free GDP. The maximum amount of EF-Tu·GDP complex observed would be equivalent to the concentration of EF-Tu capable of exchanging GDP. Approximately 50% of EF-Tu was capable of forming an EF-Tu·[^3H]GDP complex. In the subsequent experiments containing EF-Tu, the results were based on the concentration of active EF-Tu.
The equilibrium dissociation constants for the EF-Tu·GDP (K GDP) and EF-Tu·GTP (K GTP) complexes were calculated from measurements of the extent of dissociation of the complexes in dilute solutions. Both complexes were formed by incubation at […] for 2 h in 50 μL reactions (Section 3.3). […] To determine dissociation, the 50 μL reactions were diluted by addition of 5 mL of reaction mix (minus enzyme and nucleotide) that had been preincubated to 37°C, 23°C, or 0°C, and incubation was continued at these temperatures for 10, 20, and 30 min, respectively. These were the conditions used to determine the K GDP for interaction of E. coli EF-Tu with GDP, and we maintained the same conditions in the determination of the K GTP.
The concentration of complex immediately after dilution was approximately 6.0 × 10^−3 μM. After incubation, the remaining EF-Tu·GDP complex was determined. Total GDP was calculated as the amount of added [^3H]GDP plus GDP that had copurified with EF-Tu. Free GDP was the amount of total GDP minus complexes formed, and free EF-Tu was the amount of initial complex minus remaining complex. The equilibrium dissociation constants for the complexes were calculated using the following equation: (1) KGD/TP=[EF−Tufree][GD/TPfree]/[EF−Tu·GD/TP]. We observed KGDP values for EF-Tu that ranged from 30 to 75 nM in the absence of EF-Ts at the temperatures in which the EF-Tu·GDP complex was allowed to dissociate (Table 2). Previous studies to determine the KGDP governing the binding of GDP to EF-Tu in the E. coli system included EF-Ts in the assays, and therefore we also carried out assays to determine the KGDP in the presence of EF-Ts. There was no statistical change of the KGDP observed in the presence of EF-Ts (30 to 40 nM). These values are within 3-fold of that seen in the E. coli system in which the equilibrium dissociation constant (5 to 10 nM) was determined in the presence of EF-Ts.

The subject of data set [2] is E. coli EF-Tu. The conditions noted are these: cited from earlier work.
In data set [3] the target is T1, P. aeruginosa EF-Tu. Description: GDP exchange initial velocity assay (nitrocellulose filter binding). It counts as biochemical. The following applies: for Km: EF-Tu 0.64 μM, 37°C, Lineweaver-Burk, read-out: KM for the interaction of EF-Tu with GDP. The protocol: Nitrocellulose filter binding assays were used to determine GDP exchange by EF-Tu as previously described. Assays to determine the initial velocity of GDP exchange were in buffer B (50 mM Tris-HCl, (pH 7.5), 50 mM NH4Cl, and 10 mM MgCl2, 1.0 mM dithiothreitol (DTT)) containing 12 μM [^3H]GDP (500 cpm/pmol). Reactions were incubated at 37°C and were stopped by diluting the reaction mix to 2 mL in buffer B and immediately filtered through nitrocellulose (Whatman; Protran BA 85). Filters were washed three times with 2 mL of buffer B and allowed to dry, and the amount of EF-Tu·[^3H]GDP complex retained was determined by scintillation counting (Beckman Coulter LS 6500). Initial velocity reactions were from 1 to 4 min, and GDP concentrations were varied as indicated.
Historically, the GDP exchange assay has been used to determine the activity of EF-Tu. […] The kinetic parameters KM and Vmax for the interaction of P. aeruginosa EF-Tu with GDP were determined by inserting the initial velocity data into Lineweaver-Burk plots (Figure 4(b)).

Data set [4] relates to P. aeruginosa ribosomes. Put plainly: Poly(U)-dependent binding of Phe-tRNA^Phe ternary complex to the ribosomal A-site. The conditions noted are these: 3.2 μM EF-Tu, 1 μM ribosomes, GDPNP. It is filed as biochemical, Pseudomonas aeruginosa. As to the method:
To determine ternary complex binding to the ribosome, a mixture containing 50 mM Tris-HCl, (pH 7.5), 0.1 mM spermine, 40 mM KCl, 4 mM MgCl2, 1.0 mM DTT, 0.3 mM GTP or guanosine 5′-[β,γ-imido]triphosphate (GDPNP), 0.15 mg/mL poly(U) mRNA, 0.06 μM P. aeruginosa EF-Ts, 3.2 μM EF-Tu, 1.0 μM P. aeruginosa ribosomes, and 0.75 μM [^3H]Phe-tRNA^Phe (25 cpm/pmol) was used. The concentration of EF-Tu was varied from 0.32 to 1.6 μM as indicated. All components were preincubated at 37°C for 15 min in the absence of ribosomes to allow ternary complex formation. Ribosomes were then added, and incubation was continued for an additional 15 min at the same temperature. The amounts of [^3H]Phe-tRNA^Phe bound to the ribosome, representing ternary complex, were analyzed using glass microfiber filter (Whatman) binding as previously described. Control reactions lacked either EF-Tu or ribosomes.
Aminoacylated tRNA is bound at the ribosomal A-site in a ternary complex. The amount of aminoacylated tRNAs that can be bound to the A-site of the ribosome in a ternary complex was measured using [^3H]Phe-tRNA^Phe in poly(U)-dependent assays. In the absence of poly(U), a basal level of ternary complex will bind to the ribosome. In these assays, GTP was replaced with the nonhydrolyzable analog GDPNP to prevent hydrolysis of the nucleotide and dissociation of EF-Tu. […]

The target of data set [5] is Leu-tRNA^Leu and GTP (Pseudomonas aeruginosa, UniProt P09591). The following applies: 1.2 μM [3H]Leu-tRNA^Leu, 0.5 mM GTP, 15 min 4°C, RNase A.
Method: Ternary complex formation was assayed by examining the ability of EF-Tu to protect [^3H]Leu-tRNA^Leu ) from digestion by RNase A [21, 22]. EF-Tu (0, 0.6, 0.9, 1.2, 1.5, 1.8, 2.1, and 2.4 μM) was incubated in reaction mixtures (50 μL) containing 1.2 μM [^3H]Leu-tRNA^Leu, 0.5 mM GTP, 50 mM Tris-HCl, (pH 7.5), 1 mM DTT, 50 mM NH4Cl, and 6.5 mM MgCl2 for 15 min at 4°C. RNAase A was then added to a final concentration of 0.02 mg/mL and incubated for an additional 20 s. The reactions were stopped by the addition of 3 mL of ice-cold 5% trichloroacetic acid (TCA) and filtered through nitrocellulose filters (Whatman). Retention of [^3H]Leu signified EF-Tu protection of [^3H]Leu-tRNA^Leu from nuclease digestion [22].
To determine the ability of P. aeruginosa EF-Tu to form a ternary complex with Leu-tRNA^Leu and GTP, the nuclease protection assay was used [19, 22]. The nuclease protection assay measures the formation of a ternary complex by the ability of EF-Tu to protect the 3′ end of the tRNA with the covalently attached [^3H]Leu from digestion by RNase A [45]. […] Reactions contained enough RNase A to hydrolyze over 90% of the leucine away from tRNA^Leu .
For data set [6], the target named is Pseudomonas aeruginosa elongation factor Tu (Pseudomonas aeruginosa PAO1) (UniProt P09591).

Where two headings read alike, the source gives them in different places.

T1 sequence (P09591 whole entry): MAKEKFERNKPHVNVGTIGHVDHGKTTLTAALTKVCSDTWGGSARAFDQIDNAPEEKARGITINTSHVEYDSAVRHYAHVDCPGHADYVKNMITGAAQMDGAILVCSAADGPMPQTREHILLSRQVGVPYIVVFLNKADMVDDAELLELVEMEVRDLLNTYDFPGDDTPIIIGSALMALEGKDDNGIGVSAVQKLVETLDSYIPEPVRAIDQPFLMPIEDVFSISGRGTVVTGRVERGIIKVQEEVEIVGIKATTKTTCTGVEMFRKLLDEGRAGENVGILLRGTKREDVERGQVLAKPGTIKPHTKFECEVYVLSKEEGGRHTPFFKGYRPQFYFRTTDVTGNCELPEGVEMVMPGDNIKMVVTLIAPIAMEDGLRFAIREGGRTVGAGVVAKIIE
Chain of Pseudomonas aeruginosa elongation factor Tu (Pseudomonas aeruginosa PAO1) (P09591 whole entry): as above
Chain of Leu-tRNA^Leu and GTP (P09591 whole entry): as above

Turning to `Nc1nc2c(ncn2[C@@H]2O[C@H](COP(=O)(O)OP(=O)(O)O)[C@@H](O)[C@H]2O)c(=O)[nH]1` [GDP], the Kd in data set [1] (EF-Ts 0, 0°C, read-out: K GDP) is 58 nM; in data set [1] (EF-Ts 0, 23°C, read-out: K GDP), 38 nM; in data set [1] (EF-Ts 0, 37°C, read-out: K GDP), 72 nM; in data set [1] (EF-Ts 0.5 ×10^−3 μM, 0°C, read-out: K GDP), 43 nM; in data set [1] (EF-Ts 0.5 ×10^−3 μM, 23°C, read-out: K GDP), 30 nM; in data set [1] (EF-Ts 0.5 ×10^−3 μM, 37°C, read-out: K GDP), 34 nM. Also, in data set [2], the “GDP bound more tightly than GTP” value was “up to 100 fold”. For the same molecule, the “kcat obs for exchange of GDP by EF-Tu” value worked out at 0.003 s⁻¹ in data set [3] (absence of EF-Ts) and 0.005 s⁻¹ in data set [3] (presence of EF-Ts 0.01 μM). Moreover, the figures for the Km in data set [3] (absence of EF-Ts) and in data set [3] (presence of EF-Ts 0.01 μM) were 33 µM and 2 µM, respectively.

With `Nc1nc2c(ncn2[C@@H]2O[C@H](COP(=O)(O)OP(=O)(O)OP(=O)(O)O)[C@@H](O)[C@H]2O)c(=O)[nH]1` [GTP], the Kd in data set [1] (EF-Ts 0, 0°C, read-out: K GTP) was found to be 150 nM; in data set [1] (EF-Ts 0, 23°C, read-out: K GTP) it was 123 nM; in data set [1] (EF-Ts 0, 37°C, read-out: K GTP), 175 nM; in data set [1] (EF-Ts 0.5 ×10^−3 μM, 0°C, read-out: K GTP), 156 nM; in data set [1] (EF-Ts 0.5 ×10^−3 μM, 23°C, read-out: K GTP), 125 nM; in data set [1] (EF-Ts 0.5 ×10^−3 μM, 37°C, read-out: K GTP), 190 nM. Moreover, the “binding of GTP weaker than binding of GDP (KGTP vs KGDP)” value in data set [1] (P. aeruginosa EF-Tu) is on record as “up to 6 fold”.

Take “EF-Tu: recombinant elongation factor Tu from Pseudomonas aeruginosa, cloned, expressed and purified”: the “share of the ternary complex formed that bound to the ribosome” value in data set [4] (15 min) was “approximately 90%”. Besides, the “ribosomes with ternary complex bound to the A-site” value in data set [4] (within 15 min, 37°C) is given as “approximately 50%”. In data set [1] (12 μM [3H]GDP, on ice 2 h), the “EF-Tu capable of forming an EF-Tu·[3H]GDP complex (active EF-Tu)” value is reported as “Approximately 50%”. Moreover, the “EF-Tu forming a complex with each form of the nucleotide (GDP, GTP)” value in data set [1] (incubation 2 h in 50 μL reactions) is “approximately 50%”. The “EF-Tu active in ternary complex formation” value in data set [5] is “Up to 20%”. Moreover, in data set [3] (absence of EF-Ts), the “specific activity for the exchange of GDP by EF-Tu” value worked out at 0.0047 µmol/min/mg.

B1: Pseudomonas aeruginosa elongation factor Ts (natural protein)
chain: AEITAAMVKELRERTGLGMMECKKALTAAGGDIEKAIDDMRAAGAIKAAKKAGNIAAEGSIAVKIAADNKAAVIIEVNSQTDFLALQDDFKGFVAESLEKAFNEKLTDAAPLVEAREEARLALVAKTGENVNIRRLTRVEGDVVGAYLHGHRIGVVVNLKGGNPELAKDIAMHVAASNPQFLSASEVSEEAIAKEKEIFLALNADKIAGKPENIVENMVKGRISKFLAEASLVEQPFVKNPEVKVGDLAKQAGAEIVSFVRYEVGEGIEKAEVDFAAEVAAQVAATKQ
The molecule B1 returned a [3H]GDP exchange by EF-Tu (0.64 uM, 1 uM GDP) with 0.05 uM EF-Ts against without EF-Ts, nitrocellulose filter binding, 15 to 120 s, 37°C in data set [6] of 7 to 8 fold.
